Earlier results as cited in US6348220B1, “Phenethylisothiocyanate nutraceutical compositions and methods” (Rutgers, the State University of New Jersey, priority 1999, dated 2002).

Tested on: oxidation of nitrosamines from tobacco
Conditions: human smokers, PEITC from fresh watercress, urinary metabolites (Hecht et al., 1995)

S=C=NCCc1ccccc1 [PEITC, phenethyl isothiocyanate]
effect on oxidation of nitrosamines from tobacco: specifically inhibit the oxidation of nitrosamines from tobacco
